Measurements as given in patent US7247712B2, “Complex of hepatitis B virus-specific antigenic peptides associated with heat shock proteins and the application thereof” (priority 2000, dated 2007).
Entries after “also recorded” stand apart in the source; their conditions may differ.

Key:
BALB/cJ mice (H-2d) = assay: Immunization in mice followed by cytotoxicity (CTL) analysis, standard 4-h 51Cr release assay; format: in vivo
Description: FIG. 1. Specific CTL response of BALB/cJ(H-2^d) mice after immunized with 7-mer peptied and gp96-7 mer peptide complex seven days. The lysis percentage of effector cells to specific target cells was measurated in a standard 4-h ^51Cr release assay. The lysis percent rate of the figure is the mean percentage of 10 mice.
BALB/cJ mice (H-2^d) 12-16 weeks old were used in this studies.
Sample was solubilized in 100 μl PBS and was injected subcutaneously in the neck back area of each mouse.
Therefore, we adopted the immunological manner of subcutaneous injection. The 7-mer peptide was dissolved in buffer (90% PBS, 10% DMSO/0.1% TFA) and gp96-7 mer peptide complex was dissolved in PBS buffer and then shaked severely for 1 minute before injection. For each mouse, the immunization dosage of 7-mer peptide was 0.2 nmol, 2 nmol and 20 nmol, respectively, the mice were immunized with peptide and Freund's after emulsion. The immunization dosage of gp96-7 mer peptide complex was 0.01 nmol, 0.05 nmol, 0.10 nmol and 0.50 nmol, respectively, the mice were immunized with subcutaneous injection in neck back area, and the second enhanced immunization was performed after one week from the first immunization, then cytotoxicity analysis was performed after 7 days. Each treatment group consisted of 10 mice. […]

[1] = molecular target: T1, gp96 protein purified from human liver tissues (human, UniProt P14625 22-803); assay: non-covalently bound peptides eluted with TFA from gp96 purified from HBV-infected liver cancer tissues, HPLC peak, MALDI-TOF, microsequencing
T1 construct: Native protein from tissue, over 95% purity; also called purified gp96 protein
T1 sequence (P14625 22-803 limits assumed): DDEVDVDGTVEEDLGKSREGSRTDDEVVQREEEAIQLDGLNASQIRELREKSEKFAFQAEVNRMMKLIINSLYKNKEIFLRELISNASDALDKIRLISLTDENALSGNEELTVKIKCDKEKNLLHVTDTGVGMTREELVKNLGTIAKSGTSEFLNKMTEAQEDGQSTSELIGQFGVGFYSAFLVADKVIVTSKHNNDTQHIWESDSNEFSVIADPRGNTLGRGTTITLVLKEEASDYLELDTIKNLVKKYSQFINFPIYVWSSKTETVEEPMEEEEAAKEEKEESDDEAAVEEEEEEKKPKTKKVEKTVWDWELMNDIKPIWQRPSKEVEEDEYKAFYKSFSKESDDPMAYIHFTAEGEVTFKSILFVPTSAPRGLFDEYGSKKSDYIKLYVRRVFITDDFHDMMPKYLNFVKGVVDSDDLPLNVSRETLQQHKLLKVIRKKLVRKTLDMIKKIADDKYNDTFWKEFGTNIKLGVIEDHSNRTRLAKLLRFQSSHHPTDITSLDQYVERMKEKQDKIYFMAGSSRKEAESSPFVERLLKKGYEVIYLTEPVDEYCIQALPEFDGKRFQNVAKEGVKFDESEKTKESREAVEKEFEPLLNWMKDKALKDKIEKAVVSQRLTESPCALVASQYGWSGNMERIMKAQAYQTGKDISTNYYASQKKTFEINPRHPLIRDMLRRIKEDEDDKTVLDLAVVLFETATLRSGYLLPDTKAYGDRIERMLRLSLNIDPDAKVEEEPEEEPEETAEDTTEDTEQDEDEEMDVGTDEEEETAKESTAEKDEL

| Molecule | effect of adjuvant on immunogenicity (BALB/cJ mice (H-2d); Freund's incomplete adjuvant, Freund's complete adjuvant, chromium alum) | specific cytotoxic T lymphocyte (CTL) response in mice after immunization (BALB/cJ mice (H-2d); subcutaneous immunization, 51Cr release assay) | binding result [1] |
| --- | --- | --- | --- |
| YVNTNMG [7-mer peptide, 7-mer peptide “YVNTNMG or YVNVNMG”, amino acid residues 88-94 of the core protein of HBV] | can improve the immunological activity of it significantly | can elicit the specific CTL response in mice; also recorded: can elicit the specific cytotoxic T lymphocytes in mice |  |
| YVNVNMG (Printed as the alternative to YVNTNMG) [7-mer peptide YVNVNMG (HBV core protein 88-94)] |  |  | binds |
| YVNTNMG (Eluted from tissue gp96 and also synthesized) [7-mer peptide YVNTNMG (HBV core protein 88-94)] |  |  | binds |
